{"source": "ChEMBL document CHEMBL1124537", "about": "“The importance of the orientation of the C9 substituent to cannabinoid activity” (J Med Chem, 1989)", "format_in_all_cases": "functional, organism-based", "conditions_in_all_cases": "Cercopithecidae", "key": {"Monkey [1]": {"system": "Monkey", "experiment": "Compound was tested for activity in rhesus monkey behavioral test; Active"}, "Monkey [2]": {"system": "Monkey", "experiment": "Compound was tested for activity in rhesus monkey behavioral test; Inactive"}, "Monkey [3]": {"system": "Monkey", "experiment": "Compound was tested for activity in rhesus monkey behavioral test; Minimal activity"}}, "note": "Active and inactive are the calls of the source. The calls are words filed in the database; no cut-off is given here."}
{"smiles": "CCCCCc1cc(O)c2c(c1)OC(C)(C)[C@@H]1CC=C(C)C[C@@H]21", "values": [{"measurement": "Activity", "setting": "Monkey [1]", "result": "Active"}]}
{"smiles": "C=C1CCC2C(C1)c1c(O)cc(CCCCC)cc1OC2(C)C", "note": "(stereo unspecified)", "values": [{"measurement": "Activity", "setting": "Monkey [2]", "result": "inactive"}]}
{"smiles": "CCCCCc1cc(O)c2c(c1)OC(C)(C)[C@@H]1CCC(C)=C[C@@H]21", "values": [{"measurement": "Activity", "setting": "Monkey [1]", "result": "Active"}]}
{"smiles": "CCCCCc1cc(O)c2c(c1)OC(C)(C)C1C=C[C@H](C)CC21", "note": "(stereo partly specified)", "values": [{"measurement": "Activity", "setting": "Monkey [2]", "result": "inactive"}]}
{"smiles": "CCCCCc1cc(O)c2c(c1)OC(C)(C)C1CC[C@H](C)CC21", "note": "(stereo partly specified)", "values": [{"measurement": "Activity", "setting": "Monkey [1]", "result": "Active"}]}
{"smiles": "CCCCCc1cc(O)c2c(c1)OC(C)(C)C1CC[C@@H](C)CC21", "note": "(stereo partly specified)", "values": [{"measurement": "Activity", "setting": "Monkey [3]", "result": "Minimal activity"}]}
